Results on three compounds are retold here after patent US8686059B2, “Base and radical generator, composition using same and method for curing same” (Three Bond Co., Ltd., priority 2009, dated 2014).

The nature of series [1]: Confirmation of photobase generation: pH of aqueous solution before and after 365-nm irradiation. The class given is physicochemical. Conditions: 1.00 g/L aqueous solution. On the procedure: An aqueous solution having a concentration of 1.00 g/L was prepared from the aminimide compound A and pure water, and 50 ml of this was put into a transparent glass-made sample bottle having an inner diameter of 38 mm and a height of 58 mm, and with stirring with a stirrer while sealed up, the pH of the aqueous solution was measured with a pH meter, Horiba Seisakusho's D54. Further kept sealed up, the sample bottle was irradiated with 365-nm active energy rays on the side thereof at a lighting intensity of 100 mW/cm^2, using a spot UV irradiator, Hamamatsu Photonics' LC8, and the pH of the solution was measured after irradiation for specified seconds. The pH before irradiation with active energy rays was 6.28; and the pH after irradiation with active energy rays for 20 seconds was 9.78; the pH after irradiation for 30 seconds was 9.90; and the pH after irradiation for 50 seconds was 10.01.

`CC(=O)OC(C)C[N+](C)(C)[N-]C(=O)C(=O)c1ccccc1` (stereo not drawn) [Aminimide Compound D]: the melting point (as a rule, the temperature, or range, at which the solid turns liquid) was 100 to 101 °C (dec.).

Take `COc1ccc(C(=O)C(=O)[N-][N+](C)(C)CC(C)O)cc1` (stereo not drawn) [Aminimide Compound B]: the melting point was 102 to 103 °C (dec.).

Regarding `CC(O)C[N+](C)(C)[N-]C(=O)C(=O)c1ccccc1` (stereo not drawn) [Aminimide Compound A], the “pH before irradiation with active energy rays” value in series [1] amounted to 6.28. Besides, in series [1] (365 nm, 100 mW/cm^2, 20 seconds), the “pH after irradiation with active energy rays for 20 seconds” value turned out to be 9.78. In addition, the “pH after irradiation for 30 seconds” value in series [1] (365 nm, 100 mW/cm^2, 30 seconds) was 9.90. Moreover, in series [1] (365 nm, 100 mW/cm^2, 50 seconds), the “pH after irradiation for 50 seconds” value is on record as 10.01.
